Measured values published in PMC5853558, “De novo identification of lipid II binding lipopeptides with antibacterial activity against vancomycin-resistant bacteria” (Chemical Science, 2017).
In brackets after ≈: the same amount, converted by molar mass. *1 amine or outer side, *2 acyl side, *3 side chain or, on linkers, in order; H or OH if unused. Where a SMILES comes first, the peptide text is derived from it. Bridges are numbered along the chain shown (N, C = ends). [ ]: non-standard residue; d: D form. The star is where a group is joined. TBMB = c1c(C[*:1])cc(C[*:3])cc1C[*:2]; NH(CH2)11CH3 = CCCCCCCCCCCCN*; NHDecyl = CCCCCCCCCCN*

What was measured:
E. faecium (VRE7391) = assay: microbe, parasite or virus in culture; type: cell-based, Enterococcus faecium
Description: (§1) Section 4 Biological and biochemical experiments
(§2) 4.1 Minimum inhibitory concentration assay
(§3) MIC values were determined by using the broth microdilution method. Peptides were dissolved first in DMSO and diluted with broth so that the final peptide concentration was 1024 µg/ml and the DMSO concentration was 4%. Peptide serial dilutions were made in TSB in a polypropylene 96-wells plate using 50 µl volumes. An overnight culture of the organism of interest was diluted to and OD600 of 0.01 and grown until they reach 0.5. The culture was then diluted to 1 x 10^6 CFU/ml and 50 µl of this suspension was added to each well. The highest concentrations were then 512 µg/ml peptide and 2% DMSO. The plates were incubated at the preferred growth temperature of the organism that was used and 250 rpm. […] When […]
(§4) determining the MICs of the lipidated peptides, the lipopeptides were first dissolved in DMSO and diluted with TSB so that the peptide concentration was 128 µg/ml and the DMSO concentration was 4%. After inoculation the highest peptide concentration evaluated was 64 µg/ml and the DMSO concentration was 2%. A DMSO control was tested for each strain to ensure the DMSO did not affect the growth of the particular strain. […]

E. faecium (VRE0321) = assay: microbe, parasite or virus in culture; type: cell-based, Enterococcus faecium
Description: as §1, §2, §3, §4

E. faecium (VRE155) = assay: microbe, parasite or virus in culture; type: cell-based, Enterococcus faecium
Description: as §1, §2, §3, §4

E. faecium (VRE2297) = assay: microbe, parasite or virus in culture; type: cell-based, Enterococcus faecium
Description: as §1, §2, §3, §4

E. faecium (E980) = assay: microbe, parasite or virus in culture; type: cell-based, Enterococcus faecium
Description: as §1, §2, §3, §4

Sheep blood = assay: Hemolysis assay; type: cell-based
Description: Sheep blood in Alsever’s solution (2 mL) was diluted with PBS (13 mL) and centrifuged (2,000 RPM, 5 min). The supernatant was discarded and the cells were washed with another 13 mL of PBS and centrifuged. Washing was continued until the supernatant was clear. After the final wash the supernatant was discarded and the packed cells were kept on ice. Serial dilutions of each peptide were made in 50 µl PBS with the highest tested concentration 64 µg/mL in PBS, 2%
DMSO. The packed cells (150 µL) were suspended in PBS (10 mL) and 50 µL of this suspension was added to each well. A well plate column containing 0.1% triton x-100 in DI water was used as the 100% lysis control and a second column with PBS (with 2% DMSO) served as the 0% lysis control. After incubation at 37°C for 1h the plates were centrifuged (2,000 RPM, 5 min) and 25 µL of the supernatant was added to 100 µL DI water in a flat-bottom 96-wells plate (polystyrene). […]

S. epidermidis (1587) = assay: microbe, parasite or virus in culture; type: cell-based
Description: as §1, §2, §3, §4

B. subtilis (168) = assay: microbe, parasite or virus in culture; type: cell-based
Description: as §1, §2, §3, §4

S. pyogenes (5448) = assay: microbe, parasite or virus in culture; type: cell-based
Description: as §1, §2, §3, §4

M. luteus (NCTC2665) = assay: microbe, parasite or virus in culture; type: cell-based, Micrococcus luteus
Description: as §1, §2, §3, §4

[1] = Supplemental table S9, vancomycin-resistant isolate, MIC values of Table 2 expressed in µM
[2] = Table 2, vancomycin-resistant isolate from hospitalized patients, broth microdilution in TSB, 16 h, highest tested 64 µg/ml
[3] = Supplemental table S9, MIC values of Table 2 expressed in µM
[4] = Table 2, broth microdilution in TSB, 16 h, read visually, highest tested 64 µg/ml
[5] = Supplemental table S9, 1 hour incubation at 37 °C, lipopeptides at 32 µg/mL
[6] = Table 2, broth microdilution in TSB, 16 h, read visually, highest tested 64 µg/ml, 2% DMSO
[7] = Supplemental table S7, P8 with varying lipids, broth microdilution

SMILES | MIC E. faecium (VRE7391) (E. faecium (VRE7391); [1]) | MIC E. faecium (VRE7391) (E. faecium (VRE7391); [2]) | MIC E. faecium (VRE0321) (E. faecium (VRE0321); [2]) | MIC E. faecium (VRE155) (E. faecium (VRE155); [2]) | MIC E. faecium (VRE2297) (E. faecium (VRE2297); [1]) | MIC E. faecium (VRE2297) (E. faecium (VRE2297); [2]) [μg mL^–1] | MIC E. faecium (E980) (E. faecium (E980); [3]) [µM] | MIC E. faecium (E980) (E. faecium (E980); [4]) [μg mL^–1] | Hemolysis (Sheep blood; [5]) [%] | MIC S. epidermidis (1587) (S. epidermidis (1587); [3]) | MIC S. epidermidis (1587) (S. epidermidis (1587); [4]) [μg mL^–1] | MIC B. subtilis (168) (B. subtilis (168); [3]) [µM] | MIC B. subtilis (168) (B. subtilis (168); [4]) [μg mL^–1] | MIC S. pyogenes (5448) (S. pyogenes (5448); [4]) [μg mL^–1] | MIC M. luteus (NCTC2665) (M. luteus (NCTC2665); [3]) [µM] | MIC M. luteus (NCTC2665) (M. luteus (NCTC2665); [6]) [μg mL^–1] | MIC S. pyogenes (5448) (S. pyogenes (5448); [3]) [µM] | further results
CCCCCCCCCCNC(=O)CNC(=O)[C@H]1CSCc2cc3cc(c2)CSC[C@@H](NC(=O)[C@@H](CC(C)C)NC(=O)[C@@H](CC(C)C)NC(=O)[C@@H](CO)NC(=O)[C@@H](CCC(N)=O)NC(=O)[C@@H](CC(C)C)NC(=O)[C@@H](CC(C)C)NC(=O)[C@H](NC(=O)[C@@H](C)N)CSC3)C(=O)N2CCC[C@@H]2C(=O)N[C@H](Cc2ccc(O)cc2)C(=O)N[C@H](CO)C(=O)N[C@H]([C@H](C)O)C(=O)N[C@H](Cc2c[nH]cn2)C(=O)N[C@H](C)C(=O)N1 [P8-D-(R15A)-C10] (H-[dA][dC][dL][dL][dQ][dS][dL][dL][dC][dP][dY][dS][dT][dH][dA][dC]G-NHDecyl; linker 2-9-16 via TBMB; N-terminus assumed) | > 63. 1 µM | >64 μg mL^–1 | 8–16 μg mL^–1 | 16 μg mL^–1 | > 63. 1 µM | >64 | 63.1 (≈ 128 µg/mL) | 64 | 0 | > 63. 1 µM | >64 | > 63.1 | >64 | 16 | 3.9 (≈ 7.93 µg/mL) | 4 | – | Hemolysis (Sheep blood; Table 2, sheep blood cells in PBS, lipopeptides at 32 μg mL^–1, 1 hour at 37 °C, absorption at 414 nm, 0.1% triton x-100 = 100% lysis, listed as P8-R15A-C10): completely non-hemolytic; MIC M. luteus (NCTC2665) (M. luteus (NCTC2665); Table 2, broth microdilution in TSB, 16 h, read visually, highest tested 64 µg/ml, 2% DMSO, listed as P8-R15A-C10): retained activity
CCCCCCCCCCNC(=O)CNC(=O)[C@H]1CSCc2cc3cc(c2)CSC[C@@H](NC(=O)[C@@H](CC(C)C)NC(=O)[C@@H](CC(C)C)NC(=O)[C@@H](CO)NC(=O)[C@@H](CCC(N)=O)NC(=O)[C@@H](CC(C)C)NC(=O)[C@@H](CC(C)C)NC(=O)[C@H](NC(=O)[C@@H](C)N)CSC3)C(=O)N[C@H](CCCNC(=N)N)C(=O)N[C@H](Cc2ccc(O)cc2)C(=O)N[C@H](CO)C(=O)N[C@H]([C@H](C)O)C(=O)N[C@H](Cc2c[nH]cn2)C(=O)N[C@H](C)C(=O)N1 [P8-D-(P10R, R15A)-C10] (H-[dA][dC][dL][dL][dQ][dS][dL][dL][dC][dR][dY][dS][dT][dH][dA][dC]G-NHDecyl; linker 2-9-16 via TBMB; N-terminus assumed) | 15.3 µM (≈ 32 µg/mL) | 16 μg mL^–1 | 16 μg mL^–1 | 8 μg mL^–1 | 30.6 µM (≈ 64 µg/mL) | 32 | 30.6 (≈ 64 µg/mL) | 32 | 0 | > 61. 2 µM | >64 | 7.7 (≈ 16.1 µg/mL) | 8 | 16 | 3.8 (≈ 7.95 µg/mL) | 4 | 15.3 (≈ 32 µg/mL) | MIC E. faecium (VRE0321) (E. faecium (VRE0321); [1]): 15.3 µM (≈ 32 µg/mL); MIC E. faecium (VRE155) (E. faecium (VRE155); [1]): 7.7 µM (≈ 16.1 µg/mL)
CCCCCCCCCCNC(=O)CNC(=O)[C@H]1CSCc2cc3cc(c2)CSC[C@@H](NC(=O)[C@@H](CC(C)C)NC(=O)[C@@H](CC(C)C)NC(=O)[C@@H](CO)NC(=O)[C@@H](CCC(N)=O)NC(=O)[C@@H](CC(C)C)NC(=O)[C@@H](CC(C)C)NC(=O)[C@H](NC(=O)[C@@H](C)N)CSC3)C(=O)N2CCC[C@@H]2C(=O)N[C@H](Cc2ccc(O)cc2)C(=O)N[C@H](CO)C(=O)N[C@H]([C@H](C)O)C(=O)N[C@H](CCCNC(=N)N)C(=O)N[C@H](C)C(=O)N1 [P8-D-(H14R, R15A)-C10] (H-[dA][dC][dL][dL][dQ][dS][dL][dL][dC][dP][dY][dS][dT][dR][dA][dC]G-NHDecyl; linker 2-9-16 via TBMB; N-terminus assumed) | – | 8–16 μg mL^–1 | 8–16 μg mL^–1 | 8–16 μg mL^–1 | 15.6 µM (≈ 32 µg/mL) | 16 | 31.2 (≈ 64 µg/mL) | 32 | 2 | > 62. 4 µM | >64 | 15.6 (≈ 32 µg/mL) | 16 | 16 | 3.9 (≈ 8.01 µg/mL) | 4 | 15.6 (≈ 32 µg/mL) | –
CCCCCCCCCCCCNC(=O)CNC(=O)[C@H]1CSCc2cc3cc(c2)CSC[C@@H](NC(=O)[C@@H](CC(C)C)NC(=O)[C@@H](CC(C)C)NC(=O)[C@@H](CO)NC(=O)[C@@H](CCC(N)=O)NC(=O)[C@@H](CC(C)C)NC(=O)[C@@H](CC(C)C)NC(=O)[C@H](NC(=O)[C@@H](C)N)CSC3)C(=O)N2CCC[C@@H]2C(=O)N[C@H](Cc2ccc(O)cc2)C(=O)N[C@H](CO)C(=O)N[C@H]([C@H](C)O)C(=O)N[C@H](Cc2c[nH]cn2)C(=O)N[C@H](CCCNC(=N)N)C(=O)N1 [Peptide P8-D-C12] (H-[dA][dC][dL][dL][dQ][dS][dL][dL][dC][dP][dY][dS][dT][dH][dR][dC]G-{NH(CH2)11CH3}; linker 2-9-16 via TBMB; N-terminus assumed) | – | – | – | – | – | – | – | – | – | – | – | – | – | – | – | – | – | MIC VRE E155 (E. faecium (VRE155); [7]): 8 µg/mL (≈ 3.73 µM); Hemolysis 32 µg/ml (after 1 h) (Sheep blood; Supplemental table S7, sheep blood cells in PBS, 32 µg/ml, 1 h at 37°C, absorption at 414 nm): 9%; MIC M. luteus (M. luteus (NCTC2665); [7]): 4 to 8 µg/mL
